Data published in US9428549B2, “Derivatives of N-urea substituted amino acids as formyl peptide receptor modulators” (Allergan, Inc., priority 2013, dated 2016).
Values joined by “and” are separate entries in the source; they are usually repeats but may differ in a detail not shown here. Identical values can stand only once.

Biological target: T1, FPR2 (Homo sapiens, UniProt P25090)
T1 construct: expressed in transfected cells
T1 sequence (P25090 1-351): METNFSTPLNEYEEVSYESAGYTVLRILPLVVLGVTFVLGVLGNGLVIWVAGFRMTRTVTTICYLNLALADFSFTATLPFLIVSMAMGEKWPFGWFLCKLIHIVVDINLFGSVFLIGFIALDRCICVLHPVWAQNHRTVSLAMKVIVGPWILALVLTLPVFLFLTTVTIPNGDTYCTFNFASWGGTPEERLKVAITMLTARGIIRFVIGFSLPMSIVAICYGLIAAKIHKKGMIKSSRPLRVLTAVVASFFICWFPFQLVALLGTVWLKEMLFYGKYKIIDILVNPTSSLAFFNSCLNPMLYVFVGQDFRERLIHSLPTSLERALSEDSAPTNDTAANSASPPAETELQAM
Assay: Compound-induced calcium activity on FLIPR Tetra in CHO-Gα16 cells stably expressing FPRL1
Type: cell-based
Settings: for FPR2 Ga16-CHO (Rel. eff.): relative efficacy; for EC50: tested 0.61 to 10,000 nM, read-out: FPR2 Ga16-CHO EC50
Protocol: CHO-Gα16 cells stably expressing FPRL1 were cultured in (F12, 10% FBS, 1% PSA, 400 μg/ml geneticin and 50 μg/ml hygromycin) and HEK-Gqi5 cells stable expressing FPR1 were cultured in (DMEM high glucose, 10% FBS, 1% PSA, 400 μg/ml geneticin and 50 μg/ml hygromycin). In general, the day before the experiment, 18,000 cells/well were plated in a 384-well clear bottom poly-d-lysine coated plate. The following day the screening compound-induced calcium activity was assayed on the FLIPR^Tetra. The drug plates were prepared in 384-well microplates using the EP3 and the MultiPROBE robotic liquid handling systems. Compounds were tested at concentrations ranging from 0.61 to 10,000 nM. Results are expressed as EC50 (nM) and efficacy values.

Row | SMILES | FPR2 Ga16-CHO (Rel. eff.) | EC50 | FPR2 Ga16-CHO (Rel. eff.) (listed as {Ethyl[(2S)-4-Methyl-2-({[4-(trifluoromethyl)phenyl]carbamoyl}amino)pentanoyl]am) | FPR2 Ga16-CHO (Rel. eff.) (listed as {Ethyl[(2S)-4-methyl-2-({[4-(trifluoromethyl)phenyl]carbamoyl}amino)pentanoyl]am)
1 | CC(C)C[C@H](NC(=O)Nc1ccc(Br)cc1)C(=O)N(C)CC(=O)OC(C)(C)C [Compound 1, tert-Butyl{[(2S)-2-{[(4-Bromophenyl)carbamoyl]amino}-4-methylpentanoyl](methyl)amino}acetate] | (0.85) | 11.8 nM | – | –
2 | CC(C)C[C@H](NC(=O)Nc1ccc(C(F)(F)F)cc1)C(=O)N(C)CC(=O)OC(C)(C)C [Compound 2, tert-Butyl {Methyl[(2S)-4-methyl-2-({[4-(trifluoromethyl)phenyl]carbamoyl}amino)pentanoyl]amino}acetate] | (1.02) | 995 nM | – | –
3 | CC(C)C[C@H](NC(=O)Nc1ccc(Br)cc1)C(=O)N(CC(=O)OC(C)(C)C)C(C)C [Compound 3, tert-Butyl {[(2S)-2-{[(4-Bromophenyl)carbamoyl]amino}-4-methylpentanoyl](propan-2-yl)amino}acetate] | (1.06) | 163 nM | – | –
4 | CCCN(CC(=O)OC(C)(C)C)C(=O)[C@H](CC(C)C)NC(=O)Nc1ccc(Br)cc1 [Compound 4, tert-Butyl {[(2S)-2-{[(4-Bromophenyl)carbamoyl]amino}-4-methylpentanoyl](propyl)amino}acetate] | (1.04) | 0.29 nM | – | –
5 | CCCN(CC(=O)OC(C)(C)C)C(=O)[C@H](CC(C)C)NC(=O)Nc1ccc(C(F)(F)F)cc1 [Compound 5, tert-Butyl {[(2S)-4-Methyl-2-({[4-(trifluoromethyl)phenyl]carbamoyl}amino)pentanoyl](propyl)amino}acetate] | (0.95) | 434 nM | – | –
6 | CCN(CC(=O)OC(C)(C)C)C(=O)[C@H](CC(C)C)NC(=O)Nc1ccc(Br)cc1 [Compound 6, tert-Butyl {[(2S)-2-{[(4-bromophenyl)carbamoyl]amino}-4-methylpentanoyl](ethyl)amino}acetate] | (0.50) | 1970 nM | – | –
7 | CCN(CC(=O)OC(C)(C)C)C(=O)[C@H](CC(C)C)NC(=O)Nc1ccc(C(F)(F)F)cc1 [Compound 7, tert-Butyl {Ethyl[(2S)-4-methyl-2-({[4-(trifluoromethyl)phenyl]carbamoyl}amino)pentanoyl]amino}acetate] | (0.91) | 17 nM | – | –
8 | CC(C)C[C@H](NC(=O)Nc1ccc(Br)cc1)C(=O)N(C)CC(=O)O [Compound 8, {[(2S)-2-{[(4-bromophenyl)carbamoyl]amino}-4-methylpentanoyl](methyl)amino}acetic acid] | (1.00) | < 1 nM | – | –
9 | CC(C)C[C@H](NC(=O)Nc1ccc(C(F)(F)F)cc1)C(=O)N(C)CC(=O)O [Compound 9, {Methyl[(2S)-4-Methyl-2-({[4-(trifluoromethyl)phenyl]carbamoyl}amino)pentanoyl]amino}acetic acid] | (1.02) | 0.41 nM | – | –
10 | CC(C)C[C@H](NC(=O)Nc1ccc(Br)cc1)C(=O)N(CC(=O)O)C(C)C [Compound 10, {[(2S)-2-{[(4-Bromophenyl)carbamoyl]amino}-4-methylpentanoyl](propan-2-yl)amino}acetic acid] | (0.97) | 0.24 nM | – | –
11 | CC(C)C[C@H](NC(=O)Nc1ccc(C(F)(F)F)cc1)C(=O)N(CC(=O)O)C(C)C [Compound 11, {[(2S)-4-Methyl-2-({[4-(trifluoromethyl)phenyl]carbamoyl}amino)pentanoyl](propan-2-yl)amino}acetic acid] | (0.75) | 1730 nM | – | –
12 | CCCN(CC(=O)O)C(=O)[C@H](CC(C)C)NC(=O)Nc1ccc(C(F)(F)F)cc1 [Compound 13, {[(2S)-4-Methyl-2-({[4-(trifluoromethyl)phenyl]carbamoyl}amino)pentanoyl](propyl)amino}acetic acid] | (1.04) | < 1 nM | – | –
13 | CCN(CC(=O)O)C(=O)[C@H](CC(C)C)NC(=O)Nc1ccc(Br)cc1 [Compound 14, {[(2S)-2-{[(4-Bromophenyl)carbamoyl]amino}-4-methylpentanoyl](ethyl)amino}acetic acid] | (0.99) | 0.13 nM | – | –
14 | CCN(CC(=O)O)C(=O)[C@H](CC(C)C)NC(=O)Nc1ccc(C(F)(F)F)cc1 [Compound 15, {Ethyl[(2S)-4-Methyl-2-({[4-(trifluoromethyl)phenyl]carbamoyl}amino)pentanoyl]amino}acetic acid] | – | 0.32 nM and 1.85 nM | (0.85) | (1.02)
